From patent US8389680B2, “Treatment of Aspergillus infections with alpha thymosin peptides” (SciClone Pharmaceuticals, Inc., priority 2003, dated 2013)

How the values were obtained:
[1] = system: p38 and NF-kB; assay: Analysis of p38 and NF-kB activation on lung DCs; type: cell-based, murine
Procedure: P38 and NF-kB were activated on lung DCs by exposure for 20 minutes at 37° C. to Aspergillus conidia and/or 100 ng/ml TA1. Blots of cell lysates were incubated with rabbit polyclonal Abs recognizing either the unphosphorylated form of p38 MAPK, or the double-phosphorylated (Thr-180/Tyr-182) p38 MAPK, or Abs specific for the Rel A, 65 kDa DNA binding subunit of human NF-kB followed by horseradish peroxidase-conjugated goat anti-rabbit IgG, as per manufacturer's instructions. Blots were developed with an Enhanced Chemiluminescence detection kit. Bands were visualized after exposure of the blots to a Kodak RX film. To ensure similar protein loading in each lane, the phospho blots were stripped and the membranes were reprobed with Abs against p38 and NF-kB.

[2] = system: human MDC and PDC subsets; assay: Activation of human MDC and PDC subsets: phagocytosis, phenotype, cytokine release; type: cell-based; conditions: in response to conidia
Procedure: Blood CD 11c^+ myeloid DCs (MDCs) were generated from CD 14^+ mononuclear cells by magnetic cell sorting and cultured for 5 days in Iscove's modified medium, containing 10% fetal bovine serum, 50 micromolar 2-mercaptoethanol, sodium pyruvate (1 mM), 2 mM L-glutamine, HEPES (10 mM), and 50 micrograms/ml gentamycin in the presence of 50 ng/ml rHuman GM-CSF and 200 U/ml rHuman IL-4. Immature MDCs were cultured for 24 hours with 1000 ng/ml trimeric human CD40 ligand-leucine-zipper fusion protein to obtain mature DCs. CD 123^+ plasmacytoid DCs (PDCs) were isolated using the BDCA-4 isolation kit. Purity of CD 123^+ cells was >96%. For mature PDCs, immature DCs were cultured with the trimeric human CD40 ligand as above and 10 ng/ml IL-3. […] The expression of HLA Class II, CD80 and CD86 was high in both immature and mature DCs. Murine lung CD 11c^+ DCs (between 5 to 7% positive for CD8alpha and between 30 to 35% positive for Gr-1) were isolated by magnetic cell sorting. For phagocytosis, DCs were pre-exposed to 100 ng/ml TA1 for 60 minutes and subsequently incubated at 37° C. with Aspergillus conidia for an additional 60 minutes. The percentage of internalization was calculated and photographs were taken. In assessing functional maturation and cytokine determination, purified DCs were resuspended in Iscove's medium (with no serum but with polymixin B, to avoid non-specific activation by serum components and endotoxin) and pulsed with 100 ng/ml TA1 for 24 hours either alone or together with TLR ligands or unopsonized Aspergillus conidia. Cell surface phenotype was assessed by reacting samples with FITC- or PE-conjugated rat anti-mouse antibodies. Unrelated hisotype matched antibodies were used as control. The levels of TNF-alpha, IL-10, IL-12 p70, IFN-alpha and IL-8 in culture supernatants were determined by Kit ELISAs. The detection limits (pg/ml) of the assays were <3 (human) and <32 (murine) for TNF-alpha, <12 (murine) and <5 (human) for IL-10, <16 (murine) and <3 (human) for IL-12 p70 and <25 (human) IL-8. For human IFN-alpha <3 ng/ml. For enumeration of cytokine-producing cells, an ELISPOT assay was used on purified CD4^+ T cells and DCs from lungs.

[3] = system: murine DCs; assay: RT-PCR of TLR expression on DCs; type: cell-based
Procedure: Synthesis and PCR of cDNA were performed with forward and reverse PCR primers and the cycles used for murine and human TLRs and HPRT. The synthesized PCR products were separated by electrophoresis on 2% agarose gel and visualized by ethidium bromide staining.

[4] = system: A. fumigatus; assay: BMT mice with invasive aspergillosis: survival, fungal growth in lungs (chitin assay), lung histology; type: in vivo; conditions: G-CSF 250 microgram/kg intravenously
Excerpt: For infection with A. fumigatus, mice were intranasally injected for 3 consecutive days with a suspension of 2×10^7 conidia/20 microliter saline. For the quantification of fungal growth in the lungs, the chitin assay was used. The chitin content was expressed as micrograms of glucosamine per organ. The glucosamine content of lungs from uninfected mice was used as a negative control ranging between 0.80 and 2.25 microgram glucosamine/organ. For histological analysis, lungs were excised and immediately fixed in formalin. Sections (3 to 4 micron) of paraffin-embedded tissues were stained with the periodic acid-Schiff procedure. Thymosin alpha 1 (TA1) and the scrambled polypeptide are as purified sterile lyophilized acetylated polypeptides with endotoxin levels less than 0.03 pg/ml, by a standard limulus lysate assay. The sequences were as follows: Ac-[…]O (Thymosin alpha 1, SEQ ID NO.: 1) and Ac-[…]OH ([…]). Their lyophilized powders were reconstituted in sterile water.
The treatments were as follows; in BMT-mice, TA1, at different doses administered intraperitoneally, sthymosin alpha 1, 400 microgram/kg administered intraperitoneally or human recombinant G-CSF 250 microgram/kg administered intravenously, were given daily beginning the day of the BM infusion, in concomitance with the infection and continuing for an additional 3 days. Amphotericin B was given daily for 3 days in concomitance with the infection, at a dose of 4000 microgram/kg, administered intraperitoneally. This dose would cure IA in cyclophosphamide-treated mice. Cyclophosphamide, 150 mg/kg administered intraperitoneally, was given a day before the infection. In cyclophosphamide-treated mice, 400 microgram/kg TA1 was given intraperitoneally for 5 consecutive days beginning the day of the infection.
C57BL6 mice were exposed to a lethal dose of 9 Gy and infused with T cell-depleted donor cells from BALB/c mice.

[5] = combined exposure to conidia and peptide

## Ac-Ala-Lys-Ser-Asp-Val-Lys-Ala-Glu-Thr-Ser-Ser-Glu-Ile-Asp-Thr-Thr-Glu-Leu-Asp-Glu-Lys-Val-Glu-Val-Lys-Ala-Asn-Glu-OH (Ac-AKSDVKAETSSEIDTTELDEKVEVKANE-OH) [scrambled peptide]
[1]; peptide alone, 20 minutes
  p38 phosphorylation: not stimulated
[1]; scrambled peptide plus conidia
  p38 phosphorylation: not stimulated
[2]
  HLA Class II antigens and costimulatory molecule expression: failed to up-regulate
  cytokine production by DCs: failed
[3]; [5]
  expression of TLR2: failed to activate
  expression of TLR9: failed to activate
[3]; peptide alone
  expression of TLR2: failed to activate
  expression of TLR9: failed to activate

## Oc1ccc(-c2nc(-c3ccncc3)c(-c3ccc(F)cc3)[nH]2)cc1 [SB202190]
[1]; inhibitor given with TA1
  effect of inhibitor on the effect of TA1 on DCs: ablate the effect of TA1 on DCs

B1: G-CSF: human recombinant G-CSF, known to accelerate neutrophil recovery in mice (protein, UniProt P09919 31-207, looked up)
Granulocyte …: TPLGPASSLPQSFLLKCLEQVRKIQGDGAALQEKLVSECATYKLCHPEELVLLGHSLGIPWAPLSSCPSQALQLAGCLSQLHSGLFLYQGLLQALEGISPELGPTLDTLQLDVADFATTIWQQMEELGMAPALQPTQGAMPAFASAFQRRAGGVLVASHLQSFLEVSYRVLRHLAQP
[4]
  antifungal resistance by recovery from neutropenia alone, compared with TA1: not sufficient
